Reference: ChEMBL document CHEMBL3621171, “Synthesis and evaluation of 8,4'-dideshydroxy-leinamycin revealing new insights into the structure-activity relationship of the anticancer natural product leinamycin” (Bioorg Med Chem Lett, 2015)

What was measured:
Type in all cases: functional, cell-based
A-375 = test: Cytotoxicity against human A375 cells after 4 days by MTT assay; conditions: A-375, 96 h
[1] = Cytotoxicity against human SKBR cells after 4 days by MTT assay; conditions: 96 h
T47D = test: Cytotoxicity against human T47D cells after 4 days by MTT assay; conditions: 96 h
MCF7 = test: Cytotoxicity against human MCF7 cells after 4 days by MTT assay; conditions: MCF7, 96 h
Raji = test: Cytotoxicity against human Raji cells after 4 days by MTT assay; conditions: 96 h
MDA-MB-231 = test: Cytotoxicity against human MDA-MB-231 cells after 4 days by MTT assay; conditions: MDA-MB-231, 96 h

SMILES | EC50 (A-375) | EC50 [1] | EC50 (T47D) | EC50 (MCF7) | EC50 (Raji) | EC50 (MDA-MB-231)
C/C1=C\CC(=O)/C=C/C=C\c2csc(n2)[C@@H](C)NC(=O)C[C@@]2(CC1)SSC(=O)[C@@H]2C | > 10000 nM | > 10000 nM | > 10000 nM | > 10000 nM | 48.7 nM | > 10000 nM
C/C1=C\CC(=O)/C=C/C=C\c2csc(n2)[C@@H](C)NC(=O)C[C@@]2(CC1)SC(=O)[C@@H]2C | > 10000 nM | 7370 nM | > 10000 nM | 8560 nM | > 10000 nM | 1950 nM
C/C1=C\[C@@H](O)C(=O)/C=C/C=C\c2csc(n2)[C@@H](C)NC(=O)C[C@@]2(CC1)[S+]([O-])SC(=O)[C@]2(C)O (stereo not given in full) [LEINAMYCIN] | 4.69 nM | 52.3 nM | 15.2 nM | 42.4 nM | 6.29 nM | 8.99 nM
C/C1=C\CC(=O)/C=C/C=C\c2csc(n2)[C@@H](C)NC(=O)C[C@@](S)([C@@H](C)C(=O)O)CC1 | > 10000 nM | > 10000 nM | > 10000 nM | > 10000 nM | > 10000 nM | > 10000 nM
C/C1=C\CC(=O)/C=C/C=C\c2csc(n2)[C@@H](C)NC(=O)C[C@]2(CC1)[C@@H](C)C(=O)S[S+]2[O-] (stereo not given in full) | 12.5 nM | 251 nM | 196 nM | 275 nM | 8.21 nM | 71.4 nM
